{
  "source": "patent US20250275935A1",
  "about": "“COMPOSITIONS AND METHODS FOR TREATING PATIENTS WITH DEMENTIA DUE TO ALZHEIMER'S DISEASE WITH A COMBINATION OF THC AND MELATONIN” (IGC Pharma IP, LLC, priority 2021, published 2025)",
  "origin": "cited, not measured here",
  "key": {"[1]": {"conditions": "general statement, no test described"}, "[2]": {"conditions": "4.5 mg/day THC"}, "mice": {"test_system": "mice", "conditions": "THC 3 mg/kg bodyweight per day, four weeks"}, "[3]": {"test_system": "patient having severe Alzheimer's disease", "conditions": "4.9-6.7 mg dronabinol with 10 mg donepezil and 50 mg sertraline daily; decreased from 20"}},
  "data": [
    {"smiles": "C[C@@H]1O[C@@H](OC[C@H]2O[C@@H](Oc3c(-c4ccc(O)c(O)c4)oc4cc(O)cc(O)c4c3=O)[C@H](O)[C@@H](O)[C@@H]2O)[C@H](O)[C@H](O)[C@H]1O", "note": "[rutin]", "values": [
      {"measurement": "solubility in water", "setting": "[1]", "value": "only poorly soluble in water"}
    ]},
    {"smiles": "COc1ccc2[nH]cc(CCNC(C)=O)c2c1", "note": "[Melatonin, N-acetyl-5-methoxytryptamine]", "values": [
      {"measurement": "solubility in water", "setting": "[1]", "value": "typically insoluble in water"}
    ]},
    {"smiles": "CCCCCc1cc(O)c2c(c1)OC(C)(C)[C@@H]1CCC(C)=C[C@@H]21", "note": "[THC, Tetrahydrocannabinol]", "values": [
      {"measurement": "agitation or reduction from baseline of NPI total score versus placebo", "setting": "[2]", "value": "No differences were shown"},
      {"measurement": "cognitive performance (learning and memory)", "setting": "mice; mature (12 months) and old (18 months) mice", "value": "cognitive deficits in learning and memory were erased"},
      {"measurement": "cognitive performance", "setting": "mice; young mice (2 month)", "value": "performed worse than the control group of young mice"}
    ]},
    {"smiles": "COc1cc(/C=C/C(=O)CC(=O)/C=C/c2ccc(O)c(OC)c2)ccc1O", "note": "[curcumin]", "values": [
      {"measurement": "solubility in water", "setting": "[1]", "value": "only poorly soluble in water"}
    ]},
    {"smiles": "CCCCCc1cc(O)c2c(c1)OC(C)(C)[C@@H]1CCC(C)=C[C@@H]21", "note": "[dronabinol]", "values": [
      {"measurement": "NPI total score", "setting": "[3]", "value": 15}
    ]}
  ]
}
